Several values for one entry are separate records, joined by “and”; a condition that tells them apart may be missing. Identical values can stand only once.
How the values were obtained:
[1] = tested on: human body lice; test: In vivo test of lice repellency on rabbits (spray, gel, de cologne); set-up: species or system Pediculus humanus humanus (on New Zealand white rabbits); details: for % Repellency (Mean Values): Table 3; for Number of Lice (Out of 40) Found in the Treated Area: single experiments (a), (b), (c), listed as D.M.P.
Experimental: (§1) Body lice were reared in the laboratory by feeding them every 48 hours on rabbits. Lice were placed on the shaved abdomen of a white rabbit and left until they fed to satiety. Outside the host the lice were maintained at a temperature of 30 ±1° C., and relative humidity of 70±10%.
(§2) The abdomen of a New Zealand white rabbit was shaved and 100 μl of the test substance was evenly distributed over an area 2.5×5 cm. A glass cylinder 5 cm high with an internal diameter of 3.5 cm was placed on the rabbit's abdomen so that one half of it was covering the treated area and the other half the adjacent untreated area. 40 human body lice (Pediculus humanus humanus) (20 adults and 20 nymphs) which had been fed 24 hours previously were placed in the middle of the cylinder between the treated and untreated area, and the cylinder was covered with a dark cloth in order to keep the test area in the dark. The lice remained on the body of the rabbit for 5 minutes during which time over 95% of them had started feeding. The number of lice found on the treated area was then recorded and the specimen was photographed. Room temperature during the test was 20±3° C. For comparison to the tested samples, two controls were also tested: 70% Ethanol (Frutarom, C. P.) and 33% Dimethyl Phthalate (in 70% Ethanol).
The products were topically applied as a spray, lotion or gel on human hair and skin, to repel lice. The above procedure was carried out 1, 3, 5, and 24 hours after application of a test substance. Each substance was tested three times on three different rabbits on three different occasions.
(§3) % Repellency was calculated according to equation 1.
Where: A = Total Number of lice
n = Mean number of lice found in the treated area
(§4) According to Equation 1, when lice are evenly distributed between the treated and untreated areas (n=1/2 A), % Repellency=0, and when no lice are left in the treated area (n=0), % Repellency=100.

[2] = tested on: human lice; test: In vivo lice repellency on rabbits of shampoo and conditioner; set-up: species or system human lice (on rabbits); details: for % Repellency (Mean Values): Table 5; for Number of Lice (Out of 40) Found in the Treated Area: three experiments, listed as D.M.P.
Experimental: as §1
as §2, with “Ethanol). […]” for “Ethanol).”
The efficacy of a shampoo and a hair-conditioner, aimed at repellency of human lice was examined in an in vivo procedure on rabbits. Each experiment included a terpenoid containing product and four controls: 70% Ethanol, Dimethyl phthalate, placebo shampoo and placebo conditioner. All experiments were repeated three times, and the results were consistent, as shown by Table 4.
as §3, §4

[3] = tested on: human body lice; test: In vivo test of lice repellency on rabbits (spray, gel, de cologne); set-up: species or system Pediculus humanus humanus (on New Zealand white rabbits); details: 7 hours
[4] = tested on: lice; test: Standard in vitro test on filter paper (petri-dish lice repellency); details: 10 min, 20±3° C.
Experimental: Screening tests were performed on many substances of the following groups: terpenes (hydrocarbons), terpenoid alcohols, terpenoid esters, terpenoid aldehydes and ketones, essential oils which contain terpenoids and perfumes which contain terpenoids, as well as various general insect repellents, for lice-repellency. Each experiment included exposure of the lice to different concentrations of the tested substance, and measuring the dose response of those materials.
A petri-dish method was used to examine the repellency of the solutions for lice. A filter paper (Whatman No. 4, 5.5 cm in diameter) was secured in a petri-dish. A 100 μl portion of the test solution was placed on a corduroy patch (1.5 cm^2). The material was allowed to dry for 30 min. at room temperature (20±3° C.) and the patch was placed at the periphery of the petri-dish. A patch treated with a control solution (96% Ethanol) was placed on the opposite side of the dish. Twenty female lice which had been fed 24 hours previously were placed in the middle of the dish. A box was placed over the dish and it was covered with a dark cloth in order to keep the test area in the dark. The experiment was carried out at room temperature (20°±3° C.) and lasted 10 min. The number of lice on the treated and controlled patches as well as on the area between the patches was recorded in a protocol. The experiment was repeated three times for each sample.
% repellency was calculated by the following formula:
where: T=number of lice on the treated patch
C=number of lice on the untreated patch
The following terms were recorded:
RC80 =Concentration giving 80% repellency.
RC50 =Concentration giving 50% repellency.
RD80 =mg/cm^2 giving 80% repellency.
RD50 =mg/cm^2 giving 50% repellency.

[5] = tested on: mosquito; details: Hwang et al. 1985; Ruledge 1988; cited from earlier work

Compound: COC(=O)c1ccccc1C(=O)OC [Dimethyl Phthalate]
- % Repellency (Mean Values) ([1]; 1 hour): 20%
- Number of Lice (Out of 40) Found in the Treated Area ([1]; 1 hour): 21 and 12 and 15
- % Repellency (Mean Values) ([1]; 3 hours): 10%
- Number of Lice (Out of 40) Found in the Treated Area ([1]; 3 hours): 16 and 18 and 20
- % Repellency (Mean Values) ([1]; 5 hours): 20%
- Number of Lice (Out of 40) Found in the Treated Area ([1]; 5 hours): 16 and 14 and 18
- lice repellency in vivo, in words ([1]; rabbit, in vivo): poor results
- repellency against lice over the duration stated ([1]; range over at least 5 or 7 hours): 10-25%
- % Repellency (Mean Values) ([2]; 1 hour): 20%
- Number of Lice (Out of 40) Found in the Treated Area ([2]; 1 hour): 21 and 12 and 15
- % Repellency (Mean Values) ([2]; 3 hours): 10%
- Number of Lice (Out of 40) Found in the Treated Area ([2]; 3 hours): 16 and 18 and 20
- Number of Lice (Out of 40) Found in the Treated Area ([2]; 4 hours): 16 and 14 and 18
- % Repellency (Mean Values) ([2]; 5 hours): 20%
- % Repellency (Mean Values) ([2]; 7 hours): 26%
- Number of Lice (Out of 40) Found in the Treated Area ([2]; 7 hours): 18 and 14 and 12
- % Repellency (Mean Values) ([3]; Table 3): 26%
- Number of Lice (Out of 40) Found in the Treated Area ([3]; single experiments (a), (b), (c), listed as D.M.P.): 18 and 14 and 12

Compound: CC1=CCC(C(C)(C)O)CC1 (stereo not drawn) [α-TERPINEOL, α-terpineol]
- RC50 (Concentration giving 50% repellency) [4]: 0.040%
- RC80 (Concentration giving 80% repellency) [4]: 0.080%
- RD80 (mg/cm^2 giving 80% repellency) [4]: 0.056 mg/cm^2
- mosquito repellency, in words [5]: useful in mosquito repellent
